Laboratory results: the supplement of paper PMC13380429

Tests used:
Conditions in all cases: 72 h
Vero E6 [1] = assay: drug sensitivity score (DSS) for viability; higher = more toxic; extreme values may be limits of the assay
HepG2 [2] = assay: as above
Caco-2 [3] = assay: as above
U2OS [4] = assay: as above
Calu-3 [5] = assay: as above
Vero E6 [6] = assay: cell viability relative to DMSO; higher = less toxic
HepG2 [7] = assay: as above
Caco-2 [8] = assay: as above
U2OS [9] = assay: as above
Calu-3 [10] = assay: as above
Vero E6 [11] = assay: relative viability EC50 (midpoint between 100% and the lowest measured viability); higher = less toxic
Caco-2 [12] = assay: as above
U2OS [13] = assay: as above
Calu-3 [14] = assay: as above
HepG2 [15] = assay: as above

Structure (SMILES) | drug sensitivity score (Vero E6 [1]) | drug sensitivity score (HepG2 [2]) | drug sensitivity score (Caco-2 [3]) | drug sensitivity score (U2OS [4]) | drug sensitivity score (Calu-3 [5]) | cell viability (Vero E6 [6]; 1 nM) | cell viability (Vero E6 [6]; 10 nM) | cell viability (Vero E6 [6]; 100 nM) | cell viability (Vero E6 [6]; 1000 nM) | cell viability (Vero E6 [6]; 10000 nM) | cell viability (HepG2 [7]; 1 nM) | cell viability (HepG2 [7]; 10 nM) | cell viability (HepG2 [7]; 100 nM) | cell viability (HepG2 [7]; 1000 nM) | cell viability (HepG2 [7]; 10000 nM) | cell viability (Caco-2 [8]; 1 nM) | cell viability (Caco-2 [8]; 10 nM) | cell viability (Caco-2 [8]; 100 nM) | cell viability (Caco-2 [8]; 1000 nM) | cell viability (Caco-2 [8]; 10000 nM) | cell viability (U2OS [9]; 1 nM) | cell viability (U2OS [9]; 10 nM) | cell viability (U2OS [9]; 100 nM) | cell viability (U2OS [9]; 1000 nM) | cell viability (U2OS [9]; 10000 nM) | cell viability (Calu-3 [10]; 1 nM) | cell viability (Calu-3 [10]; 10 nM) | cell viability (Calu-3 [10]; 100 nM) | cell viability (Calu-3 [10]; 1000 nM) | cell viability (Calu-3 [10]; 10000 nM) | relative viability EC50 (Vero E6 [11]) | relative viability EC50 (Caco-2 [12]) | relative viability EC50 (U2OS [13]) | relative viability EC50 (Calu-3 [14]) | relative viability EC50 (HepG2 [15])
COc1ccc2c(c1)/C(=C/c1cnc[nH]1)C(=O)N2 [SU9516] | 0.5 | 3.5 | 0 | 0.2 | 0 | 97.4% | 99.4% | 95.3% | 104% | 79% | 105% | 105% | 97.7% | 90.8% | 59.3% | 101% | 96% | 95.3% | 105% | 96.8% | 101% | 103% | 101% | 106% | 83.7% | 99.9% | 109% | 112% | 122% | 134% | > 10 µM | > 10 µM | > 10 µM | > 10 µM | –
Cc1ccc2c(N3CCN(CCc4cccc(N5CCNC5=O)c4)CC3)cccc2n1 | 0 | 1.7 | 0 | 0 | 0 | 99.8% | 100% | 98.3% | 103% | 96.3% | 96.1% | 98.6% | 89.2% | 92.8% | 73.5% | 104% | 98% | 93.9% | 101% | 96% | 101% | 101% | 101% | 95.5% | 97.7% | 93.6% | 94.8% | 108% | 99.2% | 97.6% | > 10 µM | > 10 µM | > 10 µM | > 10 µM | –
C[C@]12CC[C@H](O)C[C@H]1CC[C@@H]1[C@@H]2CC[C@]2(C)[C@@H](c3ccc(=O)oc3)C[C@H]3O[C@]132 [resibufogenin] | 16 | 3.2 | 4.9 | 5.1 | 3 | 106% | 101% | 102% | 11.3% | 2.1% | 115% | 100% | 109% | 90.5% | 63.6% | 96.3% | 98.8% | 106% | 94.7% | 25.1% | 97% | 104% | 98.9% | 101% | 6.5% | 102% | 94.8% | 106% | 99.4% | 45.7% | 0.426 µM | 2.59 µM | 3.23 µM | 3.09 µM | –
Cc1cc(C)c(Nc2ccnc(Nc3ccc(C#N)cc3)n2)c(C)c1 [dapivirine] | 2.8 | 4.3 | 4.9 | 3.4 | 1 | 93.7% | 101% | 92.9% | 94.7% | 61.5% | 107% | 120% | 95.4% | 103% | 17.3% | 104% | 94.5% | 99.3% | 86% | 47.8% | 97.7% | 100% | 101% | 99% | 40.3% | 108% | 100% | 97.1% | 100% | 74.4% | – | 1.49 µM | 3.05 µM | – | 3.38 µM
CS(=O)(=O)c1cccc(CNc2nc(Nc3ccc4c(c3)CCC(=O)N4)ncc2C(F)(F)F)c1 | 1.8 | 3.5 | 0.3 | 4.2 | 0.5 | 103% | 96.9% | 99.1% | 87% | 78.8% | 104% | 111% | 94.4% | 94.9% | 50.2% | 94.6% | 101% | 95.3% | 96.6% | 85.5% | 98.3% | 97.6% | 93.7% | 92.4% | 46% | 108% | 99.5% | 101% | 88.2% | 88.5% | > 10 µM | > 10 µM | 2.04 µM | > 10 µM | –
CCC1(c2ccc(N)cc2)CCC(=O)NC1=O (stereo not given) [aminoglutethimide] | 0 | 4.8 | 0 | 0 | 0 | 97.6% | 101% | 91.3% | 86.9% | 100% | 90.7% | 96% | 85.3% | 77.2% | 71.8% | 109% | 97.2% | 105% | 112% | 111% | 102% | 105% | 105% | 101% | 98.6% | 112% | 95.6% | 103% | 93.2% | 102% | > 10 µM | > 10 µM | > 10 µM | > 10 µM | –
C=C[C@]1(C)C[C@@H](OC(=O)CS[C@@H]2C[C@H]3CC[C@@H](C2)N3C)[C@]2(C)[C@H](C)CC[C@]3(CCC(=O)[C@H]32)[C@@H](C)[C@@H]1O [retapamulin] | 0 | 2.6 | 0 | 0 | 0 | 94.9% | 101% | 90.4% | 93.9% | 91.5% | 96.9% | 101% | 89.4% | 85.9% | 74% | 94.7% | 98.2% | 112% | 92.8% | 98.8% | 103% | 98.4% | 102% | 101% | 99.1% | 107% | 98.5% | 104% | 98.2% | 97.8% | > 10 µM | > 10 µM | > 10 µM | > 10 µM | –
CNc1nc(NCc2ccc(NS(C)(=O)=O)cc2Cl)cc(-c2ccccn2)n1 [TC-G-1008] | 0.4 | 2.4 | 0.9 | 0.6 | 0.9 | 105% | 106% | 98.3% | 101% | 81.5% | 93.9% | 91.2% | 106% | 99.4% | 54.8% | 93.1% | 105% | 90.4% | 95.1% | 78.5% | 100% | 108% | 101% | 100% | 79% | 105% | 113% | 98.2% | 90% | 83.7% | > 10 µM | > 10 µM | > 10 µM | > 10 µM | –
Nc1sc2c(c1C(=O)c1ccc(Cl)cc1)CCCC2 [T-62] | – | 0 | 0 | 0 | – | – | – | – | – | – | 105% | 98% | 103% | 101% | 107% | 93.7% | 99.3% | 88.8% | 92.4% | 90.8% | 98.5% | 101% | 100% | 101% | 98% | – | – | – | – | – | – | > 10 µM | > 10 µM | – | > 10 µM
Nc1nc(=O)n([C@H]2C[C@H](O)[C@@H](CO)O2)cc1F [fdcyd] | 7 | 14.8 | 0.1 | 0.1 | 3.4 | 99.3% | 105% | 90.7% | 66.4% | 54.9% | 117% | 89.8% | 60.1% | 55.2% | 49.8% | 93.4% | 106% | 94.9% | 113% | 86.1% | 102% | 106% | 95.8% | 104% | 86.2% | 85.1% | 108% | 84.1% | 85.5% | 68.3% | – | > 10 µM | > 10 µM | – | 0.0346 µM
N#C/C(=C\c1ccc(O)cc1)C(=O)O [CHC] | – | 0 | 0 | 0 | – | – | – | – | – | – | 106% | 99% | 102% | 98% | 98.8% | 108% | 98.5% | 102% | 87.6% | 102% | 101% | 93.4% | 97.6% | 98.6% | 99.7% | – | – | – | – | – | – | > 10 µM | > 10 µM | – | > 10 µM
COc1ccc(C(=O)c2ccccc2)c(O)c1 [oxybenzone] | – | 0 | 0 | 0 | – | – | – | – | – | – | 112% | 112% | 98.9% | 114% | 103% | 99.6% | 94.4% | 98.9% | 101% | 97.8% | 103% | 103% | 101% | 98.2% | 100% | – | – | – | – | – | – | > 10 µM | > 10 µM | – | > 10 µM
CN(C)/N=N/c1[nH]cnc1C(N)=O [dacarbazine] | 0 | 2.3 | 0 | 0 | 0 | 98.6% | 94.2% | 94.4% | 97.2% | 100% | 106% | 90.7% | 99.2% | 90.5% | 72.7% | 100% | 97.8% | 97% | 103% | 93.4% | 97.7% | 99.2% | 94.9% | 102% | 92.7% | 91.9% | 102% | 95.9% | 110% | 95.7% | > 10 µM | > 10 µM | > 10 µM | > 10 µM | –
Oc1ccc([C@@H]2Oc3ccc(O)cc3[C@@H]3CCC[C@@H]32)cc1 [erteberel] | 0 | 2 | 0 | 0.5 | 0 | 94.8% | 99% | 92.5% | 99.4% | 87.8% | 102% | 101% | 97.6% | 108% | 52.4% | 95.4% | 94.4% | 96.7% | 92.8% | 86.8% | 97.5% | 95.6% | 102% | 98.9% | 82.9% | 108% | 109% | 108% | 98.3% | 102% | > 10 µM | > 10 µM | > 10 µM | > 10 µM | –
